Results reported in patent publication US10336774B2, “N-azaspirocycloalkane substituted N-heteroaryl compounds and compositions for inhibiting the activity of SHP2” (NOVARTIS AG, priority 2014, dated 2019).

The molecules below were run against SHP2 (Homo sapiens (Human), UniProt Q06124) (assay: SHP2 Allosteric Inhibition Assay). Conditions: 0.5 nM SHP2 activated with 0.5 μM peptide IRS1_pY1172(dPEG8)pY1222, surrogate substrate DiFMUP, fluorescence.
Format: biochemical
Excerpt: SHP2 Allosteric Inhibition Assay SHP2 is allosterically activated through binding of bis-tyrosyl-phorphorylated peptides to its Src Homology 2 (SH2) domains. The latter activation step leads to the release of the auto-inhibitory interface of SHP2, which in turn renders the SHP2 protein tyrosine phosphatase (PTP) active and available for substrate recognition and reaction catalysis. The catalytic activity of SHP2 was monitored using the surrogate substrate DiFMUP in a prompt fluorescence assay format. […] After 30-60 minutes incubation at 25° C., the surrogate substrate DiFMUP (Invitrogen, cat# D6567) was added to the reaction and incubated at 25° C. for 30 minutes. […] The inhibitor dose response curves were analyzed using normalized IC50 regression curve fitting with control based normalization.

SMILES	IC50
Nc1nc(N2CC3(CCC3N)C2)cnc1Sc1cccc(Cl)c1Cl (racemic) [Example 8, 2-(6-amino-5-((2,3-dichlorophenyl)thio)pyrazin-2-yl)-2-azaspiro[3.3]heptan-5-amine]	5360 nM
Nc1nc(N2CCC3(CC2)CCC(F)(F)C3N)cnc1Sc1cccnc1C(F)(F)F (racemic) [Example 82, racemic-8-(6-amino-5-((2-(trifluoromethyl)pyridin-3-yl)thio)pyrazin-2-yl)-2,2-difluoro-8-azaspiro[4.5]decan-1-amine]	380 nM
Nc1nc(N2CCC3(CC2)CCC(F)(F)[C@@H]3N)cnc1Sc1cccnc1C(F)(F)F (racemic) [Example 83a, (R) and (S)-8-(6-amino-5-((2-(trifluoromethyl)pyridin-3-yl)thio)pyrazin-2-yl)-2,2-difluoro-8-azaspiro[4.5]decan-1-amine]	882 nM
Nc1nc(N2CCC3(CC2)CCC(F)(F)[C@@H]3N)cnc1Sc1cccnc1C(F)(F)F (racemic) [Example 83b, (R) and (S)-8-(6-amino-5-((2-(trifluoromethyl)pyridin-3-yl)thio)pyrazin-2-yl)-2,2-difluoro-8-azaspiro[4.5]decan-1-amine]	306 nM
C[C@H]1CCC2(CCN(c3cnc(Sc4cccnc4C(F)(F)F)c(N)n3)CC2)[C@@H]1N (single isomer, unassigned) [Example 86a]	10 nM
C[C@@H]1CCC2(CCN(c3cnc(Sc4cccnc4C(F)(F)F)c(N)n3)CC2)[C@@H]1N (single isomer, unassigned) [Example 86b]	10 nM
NC(=O)c1nc(Sc2cccnc2C(F)(F)F)c(N)nc1N1CCC2(CCCC2N)CC1 (stereo in doubt) [Example 21, (S)-5-amino-3-(1-amino-8-azaspiro[4.5]decan-8-yl)-6-((2-(trifluoromethyl)pyridin-3-yl)thio)pyrazine-2-carboxamide]	10 nM
Nc1nc(N2CCC3(CCCC3N)CC2)nnc1Sc1cccnc1C(F)(F)F (stereo in doubt) [Example 23, (S)-8-(5-amino-6-((2-(trifluoromethyl)pyridin-3-yl)thio)-1,2,4-triazin-3-yl)-8-azaspiro[4.5]decan-1-amine]	290 nM
Nc1nc(N2CCC3(CC2)OCC[C@H]3N)cnc1Sc1cccnc1C(F)(F)F [Example 5]	349 nM
Nc1nc(N2CCC3(CC2)C(N)CCS3(=O)=O)cnc1Sc1cccc(Cl)c1Cl (stereo not shown) [Example 19]	4090 nM
Nc1nc(N2CCC3(CC[C@@H]3N)CC2)cnc1Sc1cccnc1C(F)(F)F [Example 20, (S)-7-(6-amino-5-((2-(trifluoromethyl)pyridin-3-yl)thio)pyrazin-2-yl)-7-azaspiro[3.5]nonan-1-amine]	38 nM
NC(=O)c1nc(Sc2cccnc2C(F)(F)F)c(N)nc1N1CCC2(CC[C@@H]2N)CC1 [Example 22]	53 nM
Nc1nc(N2CCC3(CCC[C@@H]3N)CC2)ncc1Sc1cccnc1C(F)(F)F [Example 24, (S)-8-(4-amino-5-((2-(trifluoromethyl)pyridin-3-yl)thio)pyrimidin-2-yl)-8-azaspiro[4.5]decan-1-amine]	2780 nM
NC(=O)c1nc(Sc2ccnc(C(F)(F)F)c2Cl)c(N)nc1N1CCC2(CCC[C@H]2N)CC1 [Example 25, (R)-5-amino-3-(1-amino-8-azaspiro[4.5]decan-8-yl)-6-((3-chloro-2-(trifluoromethyl)pyridin-4-yl)thio)pyrazine-2-carboxamide]	58 nM
Nc1nc(N2CCC3(CC[C@@H]3N)CC2)cnc1Sc1ccnc(N)c1Cl [Example 27]	42 nM
NC1=NCCC12CCN(c1cnc(Sc3cccnc3C(F)(F)F)c(N)n1)CC2 [Example 34, 8-(6-amino-5-((2-(trifluoromethyl)pyridin-3-yl)thio)pyrazin-2-yl)-2,8-diazaspiro[4.5]dec-1-en-1-amine]	32 nM
Nc1nc(N2CCC3(CC2)OCCC3N)cnc1Sc1cccnc1C(F)(F)F (stereo not shown) [Example 35]	232 nM

SMILES	IC50
NC(=O)c1cc(Sc2cccnc2C(F)(F)F)c(N)nc1N1CCC2(CCC[C@H]2N)CC1 [Example 39, (R)-6-amino-2-(1-amino-8-azaspiro[4.5]decan-8-yl)-5-((2-(trifluoromethyl)pyridin-3-yl)thio)nicotinamide]	118 nM
Nc1nc(N2CCC3(CC2)C[C@@H](O)C[C@H]3N)cnc1Sc1ccnc(N)c1Cl [Example 41, (2R,4R)-4-amino-8-(6-amino-5-((2-amino-3-chloropyridin-4-yl)thio)pyrazin-2-yl)-8-azaspiro[4.5]decan-2-ol]	7 nM
Nc1nc(N2CCC3(CC2)C[C@@H](O)C[C@H]3N)cnc1Sc1cccnc1C(F)(F)F [Example 42]	7 nM
Nc1nc(N2CCC3(CC2)C[C@H](O)C[C@H]3N)cnc1Sc1cccnc1C(F)(F)F [Example 43]	6 nM
Nc1nc(N2CCC3(CC2)C[C@@H](O)C[C@@H]3N)cnc1Sc1cccnc1C(F)(F)F [Example 44]	135 nM
CO[C@@H]1C[C@@H](N)C2(CCN(c3cnc(Sc4ccnc(N)c4Cl)c(N)n3)CC2)C1 [Example 45]	44 nM
CO[C@@H]1C[C@@H](N)C2(CCN(c3cnc(Sc4ccnc(Cl)c4Cl)c(N)n3)CC2)C1 [Example 46]	38 nM
Nc1nc(N2CCC3(CC2)CC(F)(F)CC3N)cnc1Sc1cccnc1C(F)(F)F (stereo not shown) [Example 47]	21 nM
CO[C@H]1C[C@@H](N)C2(CCN(c3cnc(Sc4cccnc4C(F)(F)F)c(N)n3)CC2)C1 [Example 48]	9 nM
CN[C@@H]1C[C@H](O)CC12CCN(c1cnc(Sc3cccnc3C(F)(F)F)c(N)n1)CC2 [Example 49]	234 nM
NC1=NC(=O)CC12CCN(c1cnc(Sc3cccnc3C(F)(F)F)c(N)n1)CC2 [Example 50]	610 nM
Nc1cc(Sc2ncc(N3CCC4(CCC[C@H]4N)CC3)nc2N)c(Cl)cn1 [Example 51]	10 nM
Nc1nc(N2CCC3(CC2)COC[C@H]3N)cnc1Sc1ccnc(N)c1Cl [Example 52]	7 nM
Nc1nc(N2CCC3(CC2)COC[C@@H]3N)cnc1Sc1ccnc(N)c1Cl [Example 53]	298 nM
Nc1nc(N2CCC3(CC2)COC[C@H]3N)cnc1Sc1cccnc1Cl [Example 54]	10 nM
Nc1nc(N2CCC3(CC2)COC[C@H]3N)cnc1Sc1ccnnc1Cl [Example 55]	73 nM
C[C@@H]1CCC2(CCN(c3cnc(Sc4ccnc(N)c4Cl)c(N)n3)CC2)[C@@H]1N [Example 56]	9 nM

Next, values leading:

IC50	SMILES
56 nM	Nc1nc(N2CCC3(CCC3N)CC2)cnc1Sc1cccc(Cl)c1Cl (racemic) [Example 14, 7-(6-amino-5-((2,3-dichlorophenyl)thio)pyrazin-2-yl)-7-azaspiro[3.5]nonan-1-amine]
25 nM	Nc1nc(N2CCC3(CCCC3N)CC2)cnc1Sc1cccc(Cl)c1Cl (stereo not shown) [Example 2]
10 nM	Nc1nc(N2CCC3(CCC[C@H]3N)CC2)cnc1Sc1cccc(Cl)c1Cl [Example 3]
32 nM	Nc1nc(N2CCC3(CCCCC3N)CC2)cnc1Sc1cccc(Cl)c1Cl (stereo not shown) [Example 4]
74 nM	Nc1nc(N2CCC3(CCCCC3N)CC2)cnc1-c1cccc(Cl)c1Cl (stereo not shown) [Example 6]
73 nM	Nc1nc(N2CCC3(CCCC3N)CC2)cnc1-c1cccc(Cl)c1Cl (stereo not shown) [Example 7]
1110 nM	Nc1nc(N2CC3(CCC3N)C2)cnc1-c1cccc(Cl)c1Cl (stereo not shown) [Example 9]
16 nM	Nc1cccc(Sc2ncc(N3CCC4(CC[C@@H]4N)CC3)nc2N)c1Cl [Example 15]
145 nM	Nc1nc(N2CCC3(CCC3N)CC2)cnc1-c1cccc(Cl)c1Cl (stereo not shown) [Example 16]
3550 nM	Nc1nc(N2CCC3(CC2)C(N)CCS3(=O)=O)cnc1-c1cccc(Cl)c1Cl (stereo not shown) [Example 18]
14 nM	Nc1nc(N2CCC3(CCC[C@H]3N)CC2)cnc1Sc1ccnc(N)c1Cl [Example 26, (R)-8-(6-amino-5-((2-amino-3-chloropyridin-4-yl)thio)pyrazin-2-yl)-8-azaspiro[4.5]decan-1-amine]
23 nM	Nc1nc(N2CCC3(CCC[C@H]3N)CC2)cnc1Sc1ccncc1Cl [Example 28, (R)-8-(6-amino-5-((3-chloropyridin-4-yl)thio)pyrazin-2-yl)-8-azaspiro[4.5]decan-1-amine]
15 nM	Nc1nc(N2CCC3(CCC[C@H]3N)CC2)cnc1Sc1cccnc1Cl [Example 29, (R)-8-(6-amino-5-((2-chloropyridin-3-yl)thio)pyrazin-2-yl)-8-azaspiro[4.5]decan-1-amine]
3 nM	Nc1nc(N2CCC3(CCC[C@H]3N)CC2)cnc1Sc1ccnc(Cl)c1Cl [Example 30, (R)-8-(6-amino-5-((2,3-dichloropyridin-4-yl)thio)pyrazin-2-yl)-8-azaspiro[4.5]decan-1-amine]
28 nM	Nc1nc(N2CCC3(CC[C@@H]3N)CC2)cnc1Sc1ccnc(Cl)c1Cl [Example 31, (S)-7-(6-amino-5-((2,3-dichloropyridin-4-yl)thio)pyrazin-2-yl)-7-azaspiro[3.5]nonan-1-amine]
11 nM	Nc1cccc(Sc2ncc(N3CCC4(CCC[C@H]4N)CC3)nc2N)c1Cl [Example 32, (R)-8-(6-amino-5-((3-amino-2-chlorophenyl)thio)pyrazin-2-yl)-8-azaspiro[4.5]decan-1-amine]
5 nM	Nc1nc(N2CCC3(CCC[C@H]3N)CC2)cnc1Sc1ccnc(F)c1Cl [Example 33, (R)-8-(6-amino-5-((3-chloro-2-fluoropyridin-4-yl)thio)pyrazin-2-yl)-8-azaspiro[4.5]decan-1-amine]
16 nM	NC(=O)c1cccc(Sc2ncc(N3CCC4(CCC[C@H]4N)CC3)nc2N)c1Cl [Example 40, (R)-3-((3-amino-5-(1-amino-8-azaspiro[4.5]decan-8-yl)pyrazin-2-yl)thio)-2-chlorobenzamide]
